Test results as given in patent US7232837B2, “Stereoisomers with high affinity for adrenergic receptors” (McNeil-PPC, Inc., priority 1999, dated 2007).
Where a name gives a salt, the structure may show the parent alone.

Experiments:
[1] = system: New Zealand white rabbits; test: Pupil diameter / mydriasis after topical application to the rabbit eye; assay type: in vivo; parameters: key to Mydriatic Responses, UNTREATED EYE: 0 = No change; + = 0–2 mm change; ++ = 2–4 mm change; conditions: for Pupil Diameter: mean ± S.E.
Experimental: (§1) These diastereomers were administered topically as either 1% or 2% solutions in buffered saline. Pupillary diameter and IOP were measured in all animals over a six hour time period during the day to minimize diurnal variations in IOP and pupil diameter.
(§2) The experiments were performed on adult male New Zealand white rabbits weighing 3.0–6.0 kg. All rabbits were caged individually and maintained on a 12 hr/12 hr light/dark schedule with free access to food and water. All animal procedures were in conformity with the ARVO Resolution on the Use and Care of Animals in Research. All treated rabbits had served as controls by having received a saline treatment on a different day.
(§3) Only one eye received drug treatment. The contralateral eye served as a control. Saline (or PBS) and drug treated rabbits were treated and observed simultaneously. A single dose was given at time zero and IOP and pupil diameter measured at −1.0, −0.5, 0.5, 1, 3 and 5 hrs post-treatment.
Pupil diameter was measured visually at the point of the greatest horizontal diameter with a transparent millimeter ruler. All measurements were made under the identical ambient lighting conditions.
(§4) Mean and Standard Error values were used to construct time-response and dose-response curves for the treated and contralateral eye of research rabbits. The data were analyzed statistically by an analysis of variance and a Bonferoni's test for significance. P<0.05 was the accepted level of significance.

[2] = system: New Zealand white rabbits; test: Intraocular pressure (IOP) after topical application to the rabbit eye; assay type: in vivo; conditions: for IOP: mean ± S.E.
Experimental: as §1, §2, §3
IOP measurements were recorded with an Alcon Applanation Pneumotonograph (Surgical Products Division, Alcon Laboratories, Inc., Ft. Worth, Tex.) in rabbits placed in Lucite restraining cages. Initial topical application of a two drop 0.5% proparacaine HCl (Ophthetic®, Allergan Pharmaceuticals, Inc.) was performed on each rabbit.
as §4

[3] = 1% topical, drug treated eye (T), 0.5 hr
[4] = 1% topical, drug treated eye (T), 1 hr
[5] = 1% topical, drug treated eye (T), 3 hr
[6] = 1% topical, drug treated eye (T), 5 hr
[7] = 1% topical, drug treated eye (T), −0.5 hr (pre-treatment)
[8] = 1% topical, drug treated eye (T), −1 hr (pre-treatment)
[9] = 1% topical, untreated contralateral eye (U), 0.5 hr
[10] = 1% topical, untreated contralateral eye (U), 1 hr
[11] = 1% topical, untreated contralateral eye (U), 3 hr
[12] = 1% topical, untreated contralateral eye (U), 5 hr
[13] = 1% topical, untreated contralateral eye (U), −0.5 hr (pre-treatment)
[14] = 1% topical, untreated contralateral eye (U), −1 hr (pre-treatment)
[15] = 2% topical, drug treated eye (T), 0.5 hr
[16] = 2% topical, drug treated eye (T), 1 hr
[17] = 2% topical, drug treated eye (T), 3 hr
[18] = 2% topical, drug treated eye (T), 5 hr
[19] = 2% topical, drug treated eye (T), −0.5 hr (pre-treatment)
[20] = 2% topical, drug treated eye (T), −1 hr (pre-treatment)
[21] = 2% topical, untreated contralateral eye (U), 0.5 hr
[22] = 2% topical, untreated contralateral eye (U), 1 hr
[23] = 2% topical, untreated contralateral eye (U), 3 hr
[24] = 2% topical, untreated contralateral eye (U), 5 hr
[25] = 2% topical, untreated contralateral eye (U), −0.5 hr (pre-treatment)
[26] = 2% topical, untreated contralateral eye (U), −1 hr (pre-treatment)

## C[C@H](N)[C@H](O)c1cccc(O)c1 [Metaraminol Bitartrate Salt, USP, metaraminol bitartrate salt, reference compound]
[1]; 1% or 2% topical, rabbit
  mydriasis / pupil diameter (result in words): produced mydriasis
[1]; 1% topical
  Mydriatic Responses, TREATED EYE: ++ (++ = 2–4 mm change)
  Mydriatic Responses, UNTREATED EYE: 0
[1]; [3]
  Pupil Diameter: 9 ± 0.5 mm
[1]; [4]
  Pupil Diameter: 9 ± 0.5 mm
[1]; [5]
  Pupil Diameter: 9 ± 0.2 mm
[1]; [6]
  Pupil Diameter: 9 ± 0.5 mm
[1]; [7]
  Pupil Diameter: 7 ± 0.5 mm
[1]; [8]
  Pupil Diameter: 7 ± 0.5 mm
[1]; [9]
  Pupil Diameter: 7 ± 0.5 mm
[1]; [10]
  Pupil Diameter: 7 ± 0.5 mm
[1]; [11]
  Pupil Diameter: 7 ± 0.5 mm
[1]; [12]
  Pupil Diameter: 7 ± 0.5 mm
[1]; [13]
  Pupil Diameter: 7 ± 0.5 mm
[1]; [14]
  Pupil Diameter: 7 ± 0.5 mm
[1]; [15]
  Pupil Diameter: 10 ± 0.2 mm
[1]; [16]
  Pupil Diameter: 10 ± 0.2 mm
[1]; [17]
  Pupil Diameter: 10 ± 0.2 mm
[1]; [18]
  Pupil Diameter: 10 ± 0.2 mm
[1]; [19]
  Pupil Diameter: 5 ± 0.2 mm
[1]; [20]
  Pupil Diameter: 5 ± 0.2 mm
[1]; [21]
  Pupil Diameter: 10 ± 0.2 mm
[1]; [22]
  Pupil Diameter: 10 ± 0.2 mm
[1]; [23]
  Pupil Diameter: 10 ± 0.2 mm
[1]; [24]
  Pupil Diameter: 10 ± 0.2 mm
[1]; [25]
  Pupil Diameter: 5 ± 0.2 mm
[1]; [26]
  Pupil Diameter: 5 ± 0.2 mm
[2]; 1% or 2% topical, rabbit
  effect on IOP (result in words): accompanying increase in IOP
[2]; [3]
  IOP: 25 ± 1.2 mmHg
[2]; [4]
  IOP: 24 ± 1.3 mmHg
[2]; [5]
  IOP: 21 ± 2.8 mmHg
[2]; [6]
  IOP: 21 ± 2.7 mmHg
[2]; [7]
  IOP: 19 ± 1.3 mmHg
[2]; [8]
  IOP: 21 ± 2.3 mmHg
[2]; [9]
  IOP: 18 ± 1.7 mmHg
[2]; [10]
  IOP: 18 ± 1.0 mmHg
[2]; [11]
  IOP: 19 ± 1.4 mmHg
[2]; [12]
  IOP: 17 ± 0.8 mmHg
[2]; [13]
  IOP: 16 ± 1.1 mmHg
[2]; [14]
  IOP: 18 ± 1.4 mmHg
[2]; [15]
  IOP: 15 ± 1.1 mmHg
[2]; [16]
  IOP: 16 ± 3.6 mmHg
[2]; [17]
  IOP: 14 ± 2.0 mmHg
[2]; [18]
  IOP: 13 ± 0.8 mmHg
[2]; [19]
  IOP: 14 ± 0.9 mmHg
[2]; [20]
  IOP: 15 ± 0.7 mmHg
[2]; [21]
  IOP: 19 ± 1.1 mmHg
[2]; [22]
  IOP: 18 ± 0.8 mmHg
[2]; [23]
  IOP: 19 ± 1.1 mmHg
[2]; [24]
  IOP: 21 ± 1.6 mmHg
[2]; [25]
  IOP: 15 ± 0.7 mmHg
[2]; [26]
  IOP: 17 ± 1.2 mmHg

## Mephentermine Hemisulfate Salt [reference compound]
[1]; 1% topical
  Mydriatic Responses, TREATED EYE: ++ (++ = 2–4 mm change)
  Mydriatic Responses, UNTREATED EYE: 0
[1]; [3]
  Pupil Diameter: 10 ± 0.2 mm
[1]; [4]
  Pupil Diameter: 10 ± 0.2 mm
[1]; [5]
  Pupil Diameter: 10 ± 0.2 mm
[1]; [6]
  Pupil Diameter: 10 ± 0.2 mm
[1]; [7]
  Pupil Diameter: 7 ± 0.2 mm
[1]; [8]
  Pupil Diameter: 7 ± 0.2 mm
[1]; [9]
  Pupil Diameter: 7 ± 0.2 mm
[1]; [10]
  Pupil Diameter: 7 ± 0.2 mm
[1]; [11]
  Pupil Diameter: 7 ± 0.2 mm
[1]; [12]
  Pupil Diameter: 7 ± 0.2 mm
[1]; [13]
  Pupil Diameter: 7 ± 0.2 mm
[1]; [14]
  Pupil Diameter: 7 ± 0.2 mm
[1]; 2% topical
  Mydriatic Responses, TREATED EYE: + (+ = 0–2 mm change)
  Mydriatic Responses, UNTREATED EYE: 0
[1]; [15]
  Pupil Diameter: 7 ± 0.7 mm
[1]; [16]
  Pupil Diameter: 8 ± 0.7 mm
[1]; [17]
  Pupil Diameter: 6 ± 0.4 mm
[1]; [18]
  Pupil Diameter: 6 ± 0.4 mm
[1]; [19]
  Pupil Diameter: 6 ± 0.3 mm
[1]; [20]
  Pupil Diameter: 6 ± 0.3 mm
[1]; [21]
  Pupil Diameter: 6 ± 0.3 mm
[1]; [22]
  Pupil Diameter: 6 ± 0.3 mm
[1]; [23]
  Pupil Diameter: 6 ± 0.3 mm
[1]; [24]
  Pupil Diameter: 6 ± 0.3 mm
[1]; [25]
  Pupil Diameter: 6 ± 0.4 mm
[1]; [26]
  Pupil Diameter: 6 ± 0.4 mm
[2]; [3]
  IOP: 24 ± 1.0 mmHg
[2]; [4]
  IOP: 24 ± 0.7 mmHg
[2]; [5]
  IOP: 22 ± 0.9 mmHg
[2]; [6]
  IOP: 18 ± 1.6 mmHg
[2]; [7]
  IOP: 18 ± 1.8 mmHg
[2]; [8]
  IOP: 19 ± 1.7 mmHg
[2]; [9]
  IOP: 20 ± 2.1 mmHg
[2]; [10]
  IOP: 17 ± 1.6 mmHg
[2]; [11]
  IOP: 20 ± 1.4 mmHg
[2]; [12]
  IOP: 17 ± 1.5 mmHg
[2]; [13]
  IOP: 17 ± 1.0 mmHg
[2]; [14]
  IOP: 17 ± 1.1 mmHg
[2]; [15]
  IOP: 23 ± 2.2 mmHg
[2]; [16]
  IOP: 23 ± 2.2 mmHg
[2]; [17]
  IOP: 21 ± 2.3 mmHg
[2]; [18]
  IOP: 23 ± 1.5 mmHg
[2]; [19]
  IOP: 19 ± 2.0 mmHg
[2]; [20]
  IOP: 21 ± 2.3 mmHg
[2]; [21]
  IOP: 18 ± 1.6 mmHg
[2]; [22]
  IOP: 16 ± 1.0 mmHg
[2]; [23]
  IOP: 18 ± 0.8 mmHg
[2]; [24]
  IOP: 20 ± 1.7 mmHg
[2]; [25]
  IOP: 17 ± 2.1 mmHg
[2]; [26]
  IOP: 18 ± 2.2 mmHg
